From patent publication US20100137170A1, “DUAL USE WELL TREATMENT COMPOSITION” (JACAM CHEMICALS, LLC, priority 2008, published 2010)

Experiment: accelerated −30° F. storage test (crystal formation)
Type: physicochemical
Details: 1.5% by volume in the Example composition
Protocol: Additional morpholine derivatives were also tested in lieu of the morpholine in the above table, at the same amount (1.5% by volume) and by the accelerated −30° F. storage test. These derivatives were N-methylmorpholine, N-ethylmorpholine, N-methylmorpholine oxide, and N-aminopropylmorpholine.

Row | result of accelerated storage test with derivative in lieu of morpholine | Structure (SMILES)
1 | satisfactory results | CCN1CCOCC1 [N-ethylmorpholine]
2 | satisfactory results | C[N+]1([O-])CCOCC1 [N-methylmorpholine oxide]
3 | satisfactory results | CN1CCOCC1 [N-methylmorpholine]

Row | Structure (SMILES) | result of accelerated storage test with derivative in lieu of morpholine
4 | NCCCN1CCOCC1 [N-aminopropylmorpholine] | satisfactory results

Experiment: substitute ingredients in lieu of morpholine in THP/THPS-amino phosophono chelant compositions (crystal deposition)
Type: physicochemical
Details: ingredients employed alone and in various combinations in THP/THPS-amino phosophono chelant compositions
Text: During the course of development of the present invention, a number of different ingredients were used in lieu of morpholine in THP/THPS-amino phosophono chelant compositions. None of these substitute materials were successful.

Row | crystal deposition of product with ingredient used in lieu of morpholine | Structure (SMILES)
5 | prone to crystal deposition | CC(C)O [isopropyl alcohol]
6 | prone to crystal deposition | N [ammonium hydroxide]
7 | prone to crystal deposition | [Na+].[OH-] [sodium hydroxide]

Row | Structure (SMILES) | crystal deposition of product with ingredient used in lieu of morpholine
8 | CO [methyl alcohol] | prone to crystal deposition
